# From US20250381165A1, “Method of Use for Benzofuran Compounds” (Tampa Bay Research Institute, Inc., priority 2024, published 2025)
# Assays:
# Format in all cases: cell-based, murine
# [1] = system: MHC class I H-2Kb on DC2.4; assay: Surface MHC class I H-2Kb on DC2.4 (AF6-88.5.5.3 flow cytometry); settings: DC2.4, 25 μg/mL
# Method: By using an MHC class I H-2K^b specific antibody, a relative comparison of the surface MHC class I was measured before and after BzFβ treatment of DC2.4 and IMG cells. […] Cells were centrifuged and washed using cold FACS buffer (DPBS with 5% FBS, 2 mM EDTA, 0.1% sodium azide). Cells were blocked with Fc block (bioLegend™; cat. no. 101320) for 10 min to 15 min to inhibit non-specific binding, followed by staining with fluorophore-conjugated antibodies; one set of cells was stained with the PE-labeled MHC/SIINFEKL specific antibody (clone 25-D1.16, Invitrogen™, Thermo Fisher Scientific Inc., Waltham, MA; cat. no. 12-5743-82), and the other set was stained with the PE-labeled MHC class I H-2Kb specific antibody (AF6-88.5.5.3,Invitrogen™, Thermo Fisher Scientific Inc., Waltham, MA; cat. no. 12-5958-82) PE-labeled MHC class I H-2kb specific (clone AF6-88.5.5.3; Invitrogen™, Thermo Fisher Scientific Inc., Waltham, MA; cat. no. 12-5958-82), for 30 min at 4° C. After washing, the cells were subjected to flow cytometric analysis with the Attune NxT Flow Cytometer (Invitrogen). Cells were gated based on live single-cell populations and positives were assessed using isotype controls and fluor-minus-one analysis when needed. Data were analyzed using the Attune NxT software or FlowJo versions 10.7 and 10.8.
# [2] = molecular target: T1, MHC class I/SIINFEKL complex on DC2.4 (Mus musculus, UniProt P01901); assay: SIINFEKL binding to DC2.4, flow cytometry with 25-D1.16 antibody
# T1 construct: DC2.4 are a C57Bl/6 lineage murine cell line and as such they express MHC class I H-2Kb and H-2Db; endogenous in cells; host or cells: DC2.4 (murine dendritic cell line, from Dr. Kenneth Rock)
# T1 sequence (P01901 22-369): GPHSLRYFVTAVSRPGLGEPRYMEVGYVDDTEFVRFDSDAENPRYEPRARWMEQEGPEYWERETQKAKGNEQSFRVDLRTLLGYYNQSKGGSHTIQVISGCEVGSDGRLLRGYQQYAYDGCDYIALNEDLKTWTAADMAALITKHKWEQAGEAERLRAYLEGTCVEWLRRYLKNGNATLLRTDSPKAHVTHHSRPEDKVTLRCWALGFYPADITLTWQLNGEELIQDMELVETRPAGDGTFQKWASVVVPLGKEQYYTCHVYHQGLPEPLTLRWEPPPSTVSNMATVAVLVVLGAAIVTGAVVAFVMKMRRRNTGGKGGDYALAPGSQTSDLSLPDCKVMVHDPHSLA
# T1 sequence (P01887 21-119 partner): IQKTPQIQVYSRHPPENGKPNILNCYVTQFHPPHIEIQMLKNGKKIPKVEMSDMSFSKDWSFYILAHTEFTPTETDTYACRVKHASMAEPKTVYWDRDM
# Method: To detect binding of peptides to MHC class I H2Kb molecules on various murine cells, the cells were cultured as previously described and treated for various times as indicated in results and figure legends. Cells were centrifuged and washed using cold FACS buffer (DPBS with 5% FBS, 2 mM EDTA, 0.1% sodium azide). Cells were blocked using Fc block (bioLegend™; cat. no. 101320) for 10 min to 15 min to inhibit non-specific binding, followed by staining with fluorophore-conjugated antibody PE-labeled anti-MHC I/SIINFEKL (clone 25-D1.16; Invitrogen™, Thermo Fisher Scientific Inc., Waltham, MA; cat. no. 12-5743-82), for 30 min at 4° C. After washing, the cells were subjected to flow cytometric analysis with the Attune NxT Flow Cytometer (Invitrogen). Cells were gated based on live single-cell populations and positives were assessed using isotype controls and fluor-minus-one analysis when needed. Data were analyzed using the Attune NxT software or FlowJo versions 10.7 and 10.8.
# To evaluate the potential of BzFβ to enhance peptide loading under conditions used to prepare DC vaccines, 1×10^6 DC2.4 cells were pretreated with 50 μg/mL BzFβ for 1 h in a total volume of 200 μL OptiMEM, then pulsed for 1 h with concentrations of SIINFEKL (1-10 μg/mL) often used for the in vitro production of DC vaccines. The cells were then stained for 30 min in 200 μL HBSS/2% FCS containing 0.4 μg PE-labeled MHC class I/SIINFEKL specific antibody, 25-D1.16.
# By using an MHC class I H-2K^b specific antibody, a relative comparison of the surface MHC class I was measured before and after BzFβ treatment of DC2.4 and IMG cells. These cells were treated with 25 μg/mL BzFβ for 0-4 h. Cells were centrifuged and washed using cold FACS buffer (DPBS with 5% FBS, 2 mM EDTA, 0.1% sodium azide). […] Cells were gated based on live single-cell populations and positives were assessed using isotype controls and fluor-minus-one analysis when needed. Data were analyzed using the Attune NxT software or FlowJo versions 10.7 and 10.8.
# Cultured cells were treated for various times as indicated in results and figure legends. […] Cells were gated based on live single-cell populations and positives were assessed using isotype controls and fluor-minus-one analysis when needed. Data were analyzed using the Attune NxT software or FlowJo versions 10.7 and 10.8.
# [3] = molecular target: T2, MHCI/SIINFEKL complex on DC2.4 (Mus musculus, UniProt P01901); assay: Displacement of SIINFEKL from DC2.4 after peptide pulse; settings: 25 μg/mL BzFβ after 1 h pulse 30 nM SIINFEKL; p<0.0001
# T2 construct: DC2.4 are a C57Bl/6 lineage murine cell line and as such they express MHC class I H-2Kb and H-2Db; endogenous in cells; host or cells: DC2.4 (murine dendritic cell line, from Dr. Kenneth Rock)
# T2 sequence (P01901 22-369): T1 sequence (P01901 22-369)
# T2 sequence (P01887 21-119 partner): T1 sequence (P01887 21-119 partner)
smiles,measurement,setting,value
"O=C(O)/C=C/c1ccc2occc2c1 [BzFβ, (2E)-3-(1-benzofuran-5-yl)prop-2-enoic acid]",overall surface expression (MFI) of MHC class I,[1]; 1-4 h,no significant effect
same,overall surface expression (MFI) of MHC class I,[1]; 24 h,significant increase
same,peptide binding under DC vaccine conditions,"[2]; 50 μg/mL BzFβ 1 h, then 1 h SIINFEKL 1-10 μg/mL",significant enhancement of peptide binding
same,SIINFEKL peptide binding to DC2.4,"[2]; 25 or 50 μg/mL, up to 24 h",significantly enhance peptide binding
same,peptide detected per cell,"[2]; 2 h pretreatment 50 μg/mL BzFβ, then 1 h 1, 5 or 10 μg/mL SIINFEKL",significantly more peptide was detected per cell
same,binding of SIINFEKL to surface MHC class I,"[2]; DC2.4, 25 μg/mL BzFβ 0-4 h",able to enhance the binding of SIINFEKL
same,MHCI/SIINFEKL complex staining versus untreated cells,[3],significantly reduced
